Data taken from patent US20090299044A1 (priority 2006, published 2009).
Bridge positions count the residues as written; N and C are the ends. Peptide text beside a SMILES is read from it.

Columns and labels:
Assay in all cases: cell-based
human Kv1.3 channel = human Kv1.3 channel (Homo sapiens, UniProt P22001); format: cell-based
human Kv1.3 (CHO) = molecular target: T1, human Kv1.3 (CHO) (Homo sapiens, UniProt P22001)
T1 construct: expressed in transfected cells; host or cells: CHO

human Kv1.1 (HEK293) = molecular target: T2, human Kv1.1 (HEK293) (Homo sapiens, UniProt Q09470)
T2 construct: expressed in transfected cells; host or cells: HEK293

human Kv1.1 = human Kv1.1 (Homo sapiens, UniProt Q09470); parameters: expressed in transfected cells; host or cells: HEK293; conditions: Kv1.1 (IC50, pM)
Sequence of human Kv1.1 (Q09470 whole entry): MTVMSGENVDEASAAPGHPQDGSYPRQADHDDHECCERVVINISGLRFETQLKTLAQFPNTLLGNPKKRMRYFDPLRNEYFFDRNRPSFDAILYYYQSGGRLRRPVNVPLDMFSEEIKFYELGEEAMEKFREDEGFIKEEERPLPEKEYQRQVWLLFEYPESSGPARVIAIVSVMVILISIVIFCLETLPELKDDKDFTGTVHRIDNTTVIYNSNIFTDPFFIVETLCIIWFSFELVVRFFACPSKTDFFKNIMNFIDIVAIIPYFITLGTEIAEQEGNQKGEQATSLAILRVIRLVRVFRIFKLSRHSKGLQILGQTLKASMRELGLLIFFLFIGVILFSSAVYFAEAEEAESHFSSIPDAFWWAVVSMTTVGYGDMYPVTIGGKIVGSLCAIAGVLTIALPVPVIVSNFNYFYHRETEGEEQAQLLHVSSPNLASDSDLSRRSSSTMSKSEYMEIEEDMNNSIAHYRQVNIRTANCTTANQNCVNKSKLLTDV

T2 sequence (Q09470 whole entry): as above
Sequence of human Kv1.3 channel (P22001 whole entry): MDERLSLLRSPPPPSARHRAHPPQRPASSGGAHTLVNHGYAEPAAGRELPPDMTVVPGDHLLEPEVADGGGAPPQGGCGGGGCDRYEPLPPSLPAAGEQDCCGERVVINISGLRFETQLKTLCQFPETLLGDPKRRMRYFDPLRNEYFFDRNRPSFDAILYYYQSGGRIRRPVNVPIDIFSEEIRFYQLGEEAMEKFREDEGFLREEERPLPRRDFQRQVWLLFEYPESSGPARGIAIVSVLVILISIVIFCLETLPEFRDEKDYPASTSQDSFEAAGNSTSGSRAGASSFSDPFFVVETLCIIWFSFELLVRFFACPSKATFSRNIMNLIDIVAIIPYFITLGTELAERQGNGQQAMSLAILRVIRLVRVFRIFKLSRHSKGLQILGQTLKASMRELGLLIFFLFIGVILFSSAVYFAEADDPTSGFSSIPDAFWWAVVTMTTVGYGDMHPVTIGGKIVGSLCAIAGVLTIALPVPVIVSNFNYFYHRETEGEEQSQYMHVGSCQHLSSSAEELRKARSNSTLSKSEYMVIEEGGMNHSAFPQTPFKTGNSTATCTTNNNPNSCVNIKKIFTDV
T1 sequence (P22001 whole entry): as above

CC[C@H](C)[C@@H]1NC(=O)[C@H](CCCCN)NC(=O)[C@@H](NC(=O)[C@H](CCCCN)NC(=O)[C@@H](NC(=O)[C@H](CC(N)=O)NC(=O)[C@@H](NC(=O)[C@@H](NC(=O)[C@@H](NC(=O)CN)C(C)C)[C@@H](C)CC)[C@@H](C)CC)C(C)C)CSSC[C@@H]2NC(=O)[C@H](CCCCN)NC(=O)CNC(=O)[C@H](Cc3ccccc3)NC(=O)[C@H](CCCNC(=N)N)NC(=O)[C@H](CCSC)NC(=O)CNC(=O)[C@H](C)NC(=O)[C@H](CCCCN)NC(=O)[C@H](CCCCN)NC(=O)[C@@H]3CSSC[C@@H](C(=O)N[C@H](C(=O)N4CCC[C@H]4C(=O)N[C@@H](CCCCN)C(=O)O)[C@@H](C)O)NC(=O)[C@H](CCC(=O)O)NC(=O)[C@H](CSSC[C@H](NC(=O)[C@H](CCC(N)=O)NC(=O)[C@H](CCCNC(=N)N)NC(=O)[C@H](CO)NC1=O)C(=O)N[C@@H](CC(C)C)C(=O)N[C@@H](CCC(=O)O)C(=O)N1CCC[C@H]1C(=O)N3)NC(=O)[C@H](CCCCN)NC(=O)CNC(=O)[C@H](CC(N)=O)NC(=O)[C@H](CCSC)NC2=O [H34E] (H-GVIINVKCKISRQCLEPCKKAGMRFGKCMNGKCECTPK-OH; disulfide 8-28, 14-33, 18-35)
IC50 (human Kv1.3 channel): 1320 pM
IC50 (human Kv1.3 (CHO)): 330 pM
IC50 (human Kv1.1 (HEK293)): 1690 pM
IC50 (human Kv1.1): 39400 pM

CC[C@H](C)[C@@H]1NC(=O)[C@H](CCCCN)NC(=O)[C@@H](NC(=O)[C@H](CCCCN)NC(=O)[C@@H](NC(=O)[C@H](CC(N)=O)NC(=O)[C@@H](NC(=O)[C@@H](NC(=O)[C@@H](NC(=O)CN)C(C)C)[C@@H](C)CC)[C@@H](C)CC)C(C)C)CSSC[C@@H]2NC(=O)[C@H](CCCCN)NC(=O)CNC(=O)[C@H](Cc3ccccc3)NC(=O)[C@H](CCCNC(=N)N)NC(=O)[C@H](CCSC)NC(=O)CNC(=O)[C@H](C)NC(=O)[C@H](CCCCN)NC(=O)[C@H](CCCCN)NC(=O)[C@@H]3CSSC[C@@H](C(=O)N[C@H](C(=O)N4CCC[C@H]4C(=O)N[C@@H](CCCCN)C(=O)O)[C@@H](C)O)NC(=O)[C@H](Cc4c[nH]cn4)NC(=O)[C@H](CSSC[C@H](NC(=O)[C@H](CCC(N)=O)NC(=O)[C@H](CCCNC(=N)N)NC(=O)[C@H](CO)NC1=O)C(=O)N[C@@H](CCC(=O)O)C(=O)N[C@@H](CCC(=O)O)C(=O)N1CCC[C@H]1C(=O)N3)NC(=O)[C@H](CCCCN)NC(=O)CNC(=O)[C@H](CC(N)=O)NC(=O)[C@H](CCSC)NC2=O [L15E] (H-GVIINVKCKISRQCEEPCKKAGMRFGKCMNGKCHCTPK-OH; disulfide 8-28, 14-33, 18-35)
IC50 (human Kv1.3 channel): 190 pM
IC50 (human Kv1.3 (CHO)): 47.5 pM
IC50 (human Kv1.1 (HEK293)): 436 pM
IC50 (human Kv1.1): 65000 pM

CC[C@H](C)[C@@H]1NC(=O)[C@H](CCCCN)NC(=O)[C@@H](NC(=O)[C@H](CCCCN)NC(=O)[C@@H](NC(=O)[C@H](CC(N)=O)NC(=O)[C@@H](NC(=O)[C@@H](NC(=O)[C@@H](NC(=O)CN)C(C)C)[C@@H](C)CC)[C@@H](C)CC)C(C)C)CSSC[C@@H]2NC(=O)[C@H](CCCCN)NC(=O)CNC(=O)[C@H](Cc3ccccc3)NC(=O)[C@H](CCCNC(=N)N)NC(=O)[C@H](CCSC)NC(=O)CNC(=O)[C@H](C)NC(=O)[C@H](CCCCN)NC(=O)[C@H](CCCCN)NC(=O)[C@@H]3CSSC[C@@H](C(=O)N[C@H](C(=O)N4CCC[C@H]4C(=O)N[C@@H](CCCCN)C(=O)O)[C@@H](C)O)NC(=O)[C@H](Cc4c[nH]cn4)NC(=O)[C@H](CSSC[C@H](NC(=O)[C@H](CCC(N)=O)NC(=O)[C@H](CCCNC(=N)N)NC(=O)[C@H](CO)NC1=O)C(=O)N[C@@H](CC(C)C)C(=O)N[C@@H](CCC(=O)O)C(=O)N1CCC[C@H]1C(=O)N3)NC(=O)[C@H](CCCCN)NC(=O)CNC(=O)[C@H](CC(N)=O)NC(=O)[C@H](CCCNC(=N)N)NC2=O [M29R] (H-GVIINVKCKISRQCLEPCKKAGMRFGKCRNGKCHCTPK-OH; disulfide 8-28, 14-33, 18-35)
IC50 (human Kv1.3 channel): 760 pM
IC50 (human Kv1.3 (CHO)): 200 pM
IC50 (human Kv1.1 (HEK293)): 1870 pM
IC50 (human Kv1.1): 23000 pM

CC[C@H](C)[C@@H]1NC(=O)[C@H](CCCCN)NC(=O)[C@@H](NC(=O)[C@H](CCCCN)NC(=O)[C@@H](NC(=O)[C@H](CC(N)=O)NC(=O)[C@@H](NC(=O)[C@@H](NC(=O)[C@@H](NC(=O)CN)C(C)C)[C@@H](C)CC)[C@@H](C)CC)C(C)C)CSSC[C@@H]2NC(=O)[C@H](CCCCN)NC(=O)CNC(=O)[C@H](Cc3ccccc3)NC(=O)[C@H](CCCNC(=N)N)NC(=O)[C@H](CCSC)NC(=O)CNC(=O)[C@H](C)NC(=O)[C@H](CCCCN)NC(=O)[C@H](CCCCN)NC(=O)[C@@H]3CSSC[C@@H](C(=O)N[C@H](C(=O)N4CCC[C@H]4C(=O)N[C@@H](CCCCN)C(=O)O)[C@@H](C)O)NC(=O)[C@H](Cc4c[nH]cn4)NC(=O)[C@H](CSSC[C@H](NC(=O)[C@H](CCC(N)=O)NC(=O)[C@H](CCCNC(=N)N)NC(=O)[C@H](CO)NC1=O)C(=O)N[C@@H](CC(C)C)C(=O)N[C@@H](CCC(=O)O)C(=O)N1CCC[C@H]1C(=O)N3)NC(=O)[C@H](CCCCN)NC(=O)CNC(=O)[C@H](C)NC(=O)[C@H](CCSC)NC2=O [N30A] (H-GVIINVKCKISRQCLEPCKKAGMRFGKCMAGKCHCTPK-OH; disulfide 8-28, 14-33, 18-35)
IC50 (human Kv1.3 channel): 766 pM
IC50 (human Kv1.3 (CHO)): 693 pM
IC50 (human Kv1.1 (HEK293)): > 3000 pM
IC50 (human Kv1.1): 10200 pM

CC[C@H](C)[C@@H]1NC(=O)[C@H](CCCCN)NC(=O)[C@@H](NC(=O)[C@H](CCCCN)NC(=O)[C@@H](NC(=O)[C@H](CC(N)=O)NC(=O)[C@@H](NC(=O)[C@@H](NC(=O)[C@@H](NC(=O)CN)C(C)C)[C@@H](C)CC)[C@@H](C)CC)C(C)C)CSSC[C@@H]2NC(=O)[C@H](CCCCN)NC(=O)CNC(=O)[C@H](Cc3ccccc3)NC(=O)[C@H](CCCNC(=N)N)NC(=O)[C@H](CCSC)NC(=O)CNC(=O)[C@H](C)NC(=O)[C@H](CCCCN)NC(=O)[C@H](CCCCN)NC(=O)[C@@H]3CSSC[C@@H](C(=O)N[C@H](C(=O)N[C@@H](CCC(=O)O)C(=O)N[C@@H](CCCCN)C(=O)O)[C@@H](C)O)NC(=O)[C@H](Cc4c[nH]cn4)NC(=O)[C@H](CSSC[C@H](NC(=O)[C@H](CCC(N)=O)NC(=O)[C@H](CCCNC(=N)N)NC(=O)[C@H](CO)NC1=O)C(=O)N[C@@H](CC(C)C)C(=O)N[C@@H](CCC(=O)O)C(=O)N1CCC[C@H]1C(=O)N3)NC(=O)[C@H](CCCCN)NC(=O)CNC(=O)[C@H](CC(N)=O)NC(=O)[C@H](CCSC)NC2=O [P37E] (H-GVIINVKCKISRQCLEPCKKAGMRFGKCMNGKCHCTEK-OH; disulfide 8-28, 14-33, 18-35)
IC50 (human Kv1.3 channel): 241 pM
IC50 (human Kv1.3 (CHO)): 62.7 pM
IC50 (human Kv1.1 (HEK293)): 622 pM
IC50 (human Kv1.1): 15700 pM

CC[C@H](C)[C@@H]1NC(=O)[C@H](CCCCN)NC(=O)[C@@H](NC(=O)[C@H](CCCCN)NC(=O)[C@@H](NC(=O)[C@H](CC(N)=O)NC(=O)[C@@H](NC(=O)[C@@H](NC(=O)[C@@H](NC(=O)CN)C(C)C)[C@@H](C)CC)[C@@H](C)CC)C(C)C)CSSC[C@@H]2NC(=O)[C@H](CCCCN)NC(=O)CNC(=O)[C@H](Cc3ccccc3)NC(=O)[C@H](CCCNC(=N)N)NC(=O)[C@H](CCSC)NC(=O)CNC(=O)[C@H](C)NC(=O)[C@H](CCCCN)NC(=O)[C@H](CCCCN)NC(=O)[C@@H]3CSSC[C@@H](C(=O)N[C@H](C(=O)N4CCC[C@H]4C(=O)N[C@@H](CCCCN)C(=O)O)[C@@H](C)O)NC(=O)[C@H](Cc4c[nH]cn4)NC(=O)[C@H](CSSC[C@H](NC(=O)[C@H](CCC(N)=O)NC(=O)[C@H](C)NC(=O)[C@H](CO)NC1=O)C(=O)N[C@@H](CC(C)C)C(=O)N[C@@H](CCC(=O)O)C(=O)N1CCC[C@H]1C(=O)N3)NC(=O)[C@H](CCCCN)NC(=O)CNC(=O)[C@H](CC(N)=O)NC(=O)[C@H](CCSC)NC2=O [R12A] (H-GVIINVKCKISAQCLEPCKKAGMRFGKCMNGKCHCTPK-OH; disulfide 8-28, 14-33, 18-35)
IC50 (human Kv1.3 channel): 25 pM
IC50 (human Kv1.3 (CHO)): 390 pM
IC50 (human Kv1.1 (HEK293)): 55.9 pM
IC50 (human Kv1.1): 440 pM

CC[C@H](C)[C@@H]1NC(=O)[C@H](CCCCN)NC(=O)[C@@H](NC(=O)[C@H](CCCCN)NC(=O)[C@@H](NC(=O)[C@H](CC(N)=O)NC(=O)[C@@H](NC(=O)[C@@H](NC(=O)[C@@H](NC(=O)CN)C(C)C)[C@@H](C)CC)[C@@H](C)CC)C(C)C)CSSC[C@@H]2NC(=O)[C@H](CCCCN)NC(=O)CNC(=O)[C@H](Cc3ccccc3)NC(=O)[C@H](CCCNC(=N)N)NC(=O)[C@H](CCSC)NC(=O)CNC(=O)[C@H](C)NC(=O)[C@H](CCCCN)NC(=O)[C@H](CCCCN)NC(=O)[C@@H]3CSSC[C@@H](C(=O)N[C@H](C(=O)N4CCC[C@H]4C(=O)N[C@@H](CCCCN)C(=O)O)[C@@H](C)O)NC(=O)[C@H](Cc4c[nH]cn4)NC(=O)[C@H](CSSC[C@H](NC(=O)[C@H](CCC(N)=O)NC(=O)[C@H](CCCNC(=N)N)NC(=O)[C@H](CCCNC(=N)N)NC1=O)C(=O)N[C@@H](CC(C)C)C(=O)N[C@@H](CCC(=O)O)C(=O)N1CCC[C@H]1C(=O)N3)NC(=O)[C@H](CCCCN)NC(=O)CNC(=O)[C@H](CC(N)=O)NC(=O)[C@H](CCSC)NC2=O [S11R] (H-GVIINVKCKIRRQCLEPCKKAGMRFGKCMNGKCHCTPK-OH; disulfide 8-28, 14-33, 18-35)
IC50 (human Kv1.3 channel): 40 pM
IC50 (human Kv1.3 (CHO)): 16.7 pM
IC50 (human Kv1.1 (HEK293)): 210 pM
IC50 (human Kv1.1): 9130 pM
